Reference: ChEMBL document CHEMBL4699534, “Optimizing PEG-Extended Apelin Analogues as Cardioprotective Drug Leads: Importance of the KFRR Motif and Aromatic Head Group for Improved Physiological Activity” (J Med Chem, 2020)
Non-standard residues stand in square brackets, D forms with d. Residues, ends and D or L forms follow the SMILES beside them. *: point of attachment. CH3O(CH2CH2O)7C2H4CO = COCCOCCOCCOCCOCCOCCOCCOCCC(=O)*; PEG10 = NCCOCCOCCOCCOCCOCCOCCOCCOCCOCCOCCC(=O)O; Bpa = N[C@@H](Cc1ccc(C(=O)c2ccccc2)cc1)C(=O)O; Phe(4-Br) = N[C@@H](Cc1ccc(Br)cc1)C(=O)O; PEG7 = NCCOCCOCCOCCOCCOCCOCCOCCC(=O)O; Fmoc = O=C(OCC1c2ccccc2-c2ccccc21)*; NMeL = CN[C@@H](CC(C)C)C(=O)O; PEG4 = NCCOCCOCCOCCOCCC(=O)O; PEG3 = NCCOCCOCCOCCC(=O)O; Nle = CCCC[C@H](N)C(=O)O; X1 = COCCOCCOCCOCCC(=O)*; Cbz = O=C(OCc1ccccc1)*; Aib = CC(C)(N)C(=O)O

Key:
Heart [1] = test: Cardioprotective activity in mouse Langendorff heart perfusion and ischemia-reperfusion injury model assessed as left ventricle developed pressure at 1 uM dosed at start of reperfusion for 10 mins; assay type: functional
[2] = Protein binding in 55% mouse plasma at 100 uM incubated for 3 hrs by LC/MS detection based equilibrium dialysis; assay type: ADME, cell-free; details: 55% plasma, read-out: PPB (converted)
[3] = Half life in human plasma at 400 uM by HPLC analysis; assay type: ADME, cell-free
Heart [4] = test: Cardioprotective activity in mouse Langendorff heart perfusion and ischemia-reperfusion injury model assessed as maximum derivative of change in systolic blood pressure over time at 1 uM dosed at start of reperfusion for 10 mins; assay type: functional
[5] = Lipophilicity, log D of the compound in pH 7.4 PBS by LC/MS detection based shake flask assay; assay type: physicochemical
[6] = Half life in mouse plasma at 400 uM by HPLC analysis; assay type: ADME, cell-free
Apelin receptor [7] = target: T1, Apelin receptor (Rattus norvegicus, UniProt Q9JHG3); test: Displacement of [125I]-pyr-1-apelin-13 from EGFP-tagged wild-type rat apelin receptor expressed in CHO cell membranes by gamma counting method; design: species or system Cell membrane
T1 sequence (Q9JHG3 whole entry): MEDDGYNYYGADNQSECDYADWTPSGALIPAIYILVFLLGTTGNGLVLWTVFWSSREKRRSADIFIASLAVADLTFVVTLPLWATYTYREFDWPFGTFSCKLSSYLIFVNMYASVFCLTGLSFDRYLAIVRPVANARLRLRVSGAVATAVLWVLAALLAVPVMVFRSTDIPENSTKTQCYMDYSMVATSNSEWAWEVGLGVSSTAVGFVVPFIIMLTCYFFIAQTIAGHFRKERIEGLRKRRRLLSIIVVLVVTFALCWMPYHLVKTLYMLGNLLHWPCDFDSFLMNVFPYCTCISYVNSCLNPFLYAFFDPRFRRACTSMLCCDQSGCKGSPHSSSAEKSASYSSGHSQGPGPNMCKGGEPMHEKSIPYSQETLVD

[8] = Protein binding in 55% human plasma at 100 uM incubated for 3 hrs by LC/MS detection based equilibrium dialysis; assay type: ADME, cell-free; details: 55% plasma, read-out: PPB (converted)
Mus musculus = test: Cardioprotective activity in C57BL/6 mouse assessed as reduction in mean arterial blood pressure at 1.4 uM/kg, iv measured after 15 mins relative to control; assay type: functional; details: 0.25 h
Apelin receptor [9] = target: T2, Apelin receptor (Homo sapiens, UniProt P35414); test: Activation of APJ receptor (unknown origin) expressed in Chem-5 cells assessed as stimulation of Ca2+ mobilization by Calcium 6-GF dye based fluorescence based assay; assay type: functional, cell-based
T2 sequence (P35414 whole entry): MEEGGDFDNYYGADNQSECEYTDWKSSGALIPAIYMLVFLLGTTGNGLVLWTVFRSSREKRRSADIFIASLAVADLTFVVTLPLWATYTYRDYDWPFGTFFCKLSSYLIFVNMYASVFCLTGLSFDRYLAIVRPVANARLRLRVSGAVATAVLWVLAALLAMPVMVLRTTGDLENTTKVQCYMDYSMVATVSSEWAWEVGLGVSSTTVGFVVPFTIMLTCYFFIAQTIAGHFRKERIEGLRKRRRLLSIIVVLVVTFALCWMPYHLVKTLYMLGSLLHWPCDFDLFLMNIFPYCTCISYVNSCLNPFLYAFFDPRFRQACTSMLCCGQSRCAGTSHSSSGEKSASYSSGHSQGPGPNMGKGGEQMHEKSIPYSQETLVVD

Compound	Activity (Heart [1])	fraction unbound at 3 h, 100 µM [2]	half-life at 400 µM [3]	dP/dt max (Heart [4])	logD [5]	half-life at 400 µM [6]	IC50 (Apelin receptor [7])	fraction unbound at 3 h, 100 µM [8]	Activity (Mus musculus)	EC50 (Apelin receptor [9])
CSCC[C@H](NC(=O)[C@@H]1CCCN1C(=O)CNC(=O)[C@H](CCCCN)NC(=O)[C@H](Cc1c[nH]cn1)NC(=O)[C@H](CO)NC(=O)[C@H](CC(C)C)NC(=O)[C@H](CCCNC(=N)N)NC(=O)[C@@H]1CCCN1C(=O)[C@H](CCCNC(=N)N)NC(=O)[C@H](CCC(N)=O)NC(=O)[C@H](CCCNC(=N)N)NC(=O)[C@H](CCCNC(=N)N)NC(=O)[C@H](Cc1ccccc1)NC(=O)[C@@H](N)CCCCN)C(=O)N1CCCC1C(=O)N[C@@H](Cc1ccccc1)C(=O)O (some centres undefined)	30 mmHg	0.49	0.02 h	1020 mmHg/s	-2.57	0.03 h	0.0501 nM	0.43	17 mmHg	
CCCC[C@H](NC(=O)[C@@H]1CCCN1C(=O)CNC(=O)[C@H](CCCCN)NC(=O)[C@H](Cc1c[nH]cn1)NC(=O)[C@H](CO)NC(=O)[C@H](CC(C)C)N(C)C(=O)[C@H](CCCNC(=N)N)NC(=O)[C@@H]1CCCN1C(=O)[C@H](CCCNC(=N)N)NC(=O)[C@H](CCC(N)=O)NC(=O)[C@H](CCCNC(=N)N)NC(=O)[C@H](CCCNC(=N)N)NC(=O)[C@H](Cc1ccccc1)NC(=O)[C@@H](N)CCCCN)C(=O)NC(C)(C)C(=O)N[C@@H](Cc1ccc(Br)cc1)C(=O)O (H-KFRRQRPR[NMeL]SHKGP[Nle][Aib][Phe(4-Br)]-OH)	25 mmHg	0.45	1.2 h	778 mmHg/s	-2.01	0.9 h	0.603 nM	0.48	30 mmHg	
CCCC[C@H](NC(=O)[C@@H]1CCCN1C(=O)CNC(=O)[C@H](CCCCN)NC(=O)[C@H](Cc1c[nH]cn1)NC(=O)[C@H](CO)NC(=O)[C@H](CC(C)C)N(C)C(=O)[C@H](CCCNC(=N)N)NC(=O)[C@@H]1CCCN1C(=O)[C@H](CCCNC(=N)N)NC(=O)[C@H](CCC(N)=O)NC(=O)[C@H](CCCNC(=N)N)NC(=O)[C@H](CCCNC(=N)N)NC(=O)[C@H](Cc1ccccc1)NC(=O)[C@H](CCCCN)NC(=O)CCOCCOCCOCCOCCOCCOCCOCCNC(=O)[C@@H](N)Cc1ccc(C(=O)c2ccccc2)cc1)C(=O)NC(C)(C)C(=O)N[C@@H](Cc1ccc(Br)cc1)C(=O)O (H-[Bpa][PEG7]KFRRQRPR[NMeL]SHKGP[Nle][Aib][Phe(4-Br)]-OH)			8.2 h				1.29 nM		43 mmHg	89.1 nM
CCCC[C@H](NC(=O)[C@@H]1CCCN1C(=O)CNC(=O)[C@H](CCCCN)NC(=O)[C@H](Cc1c[nH]cn1)NC(=O)[C@H](CO)NC(=O)[C@H](CC(C)C)N(C)C(=O)[C@H](CCCNC(=N)N)NC(=O)[C@@H]1CCCN1C(=O)[C@H](CCCNC(=N)N)NC(=O)[C@H](CCC(N)=O)NC(=O)[C@H](CCCNC(=N)N)NC(=O)[C@H](CCCNC(=N)N)NC(=O)[C@H](Cc1ccccc1)NC(=O)[C@H](CCCCN)NC(=O)CCOCCOCCOCCOCCN)C(=O)NC(C)(C)C(=O)N[C@@H](Cc1ccc(Br)cc1)C(=O)O (H-[PEG4]KFRRQRPR[NMeL]SHKGP[Nle][Aib][Phe(4-Br)]-OH)			2 h				6.31 nM		24 mmHg	7.76 nM
CCCC[C@H](NC(=O)[C@@H]1CCCN1C(=O)CNC(=O)[C@H](CCCCN)NC(=O)[C@H](Cc1c[nH]cn1)NC(=O)[C@H](CO)NC(=O)[C@H](CC(C)C)N(C)C(=O)[C@H](CCCNC(=N)N)NC(=O)[C@@H]1CCCN1C(=O)[C@H](CCCNC(=N)N)NC(=O)[C@H](CCC(N)=O)NC(=O)[C@H](CCCNC(=N)N)NC(=O)[C@H](CCCNC(=N)N)NC(=O)[C@H](Cc1ccccc1)NC(=O)[C@H](CCCCN)NC(=O)CCOCCOCCOCCOCCOCCOCCOCCN)C(=O)NC(C)(C)C(=O)N[C@@H](Cc1ccc(Br)cc1)C(=O)O (H-[PEG7]KFRRQRPR[NMeL]SHKGP[Nle][Aib][Phe(4-Br)]-OH)		0.31	3 h		-1.82		1.7 nM	0.21	35 mmHg	2.88 nM
CCCC[C@H](NC(=O)[C@@H]1CCCN1C(=O)CNC(=O)[C@H](CCCCN)NC(=O)[C@H](Cc1c[nH]cn1)NC(=O)[C@H](CO)NC(=O)[C@H](CC(C)C)N(C)C(=O)[C@H](CCCNC(=N)N)NC(=O)[C@@H]1CCCN1C(=O)[C@H](CCCNC(=N)N)NC(=O)[C@H](CCC(N)=O)NC(=O)[C@H](CCCNC(=N)N)NC(=O)[C@H](CCCNC(=N)N)NC(=O)[C@H](Cc1ccccc1)NC(=O)[C@H](CCCCN)NC(=O)CCOCCOCCOCCOC)C(=O)NC(C)(C)C(=O)N[C@@H](Cc1ccc(Br)cc1)C(=O)O (X1-KFRRQRPR[NMeL]SHKGP[Nle][Aib][Phe(4-Br)]-OH)			2.8 h				3.31 nM		32 mmHg	53.7 nM
CCCC[C@H](NC(=O)[C@@H]1CCCN1C(=O)CNC(=O)[C@H](CCCCN)NC(=O)[C@H](Cc1c[nH]cn1)NC(=O)[C@H](CO)NC(=O)[C@H](CC(C)C)N(C)C(=O)[C@H](CCCNC(=N)N)NC(=O)[C@@H]1CCCN1C(=O)[C@H](CCCNC(=N)N)NC(=O)[C@H](CCC(N)=O)NC(=O)[C@H](CCCNC(=N)N)NC(=O)[C@H](CCCNC(=N)N)NC(=O)[C@H](Cc1ccccc1)NC(=O)[C@H](CCCCN)NC(=O)CCOCCOCCOCCOCCOCCOCCOCCOC)C(=O)NC(C)(C)C(=O)N[C@@H](Cc1ccc(Br)cc1)C(=O)O ({CH3O(CH2CH2O)7C2H4CO}-KFRRQRPR[NMeL]SHKGP[Nle][Aib][Phe(4-Br)]-OH)			0.7 h				1.7 nM		30 mmHg	8.13 nM
CCCC[C@H](NC(=O)[C@@H]1CCCN1C(=O)CNC(=O)[C@H](CCCCN)NC(=O)[C@H](Cc1c[nH]cn1)NC(=O)[C@H](CO)NC(=O)[C@H](CC(C)C)N(C)C(=O)[C@H](CCCNC(=N)N)NC(=O)[C@@H]1CCCN1C(=O)[C@H](CCCNC(=N)N)NC(=O)[C@H](CCC(N)=O)NC(=O)[C@H](CCCNC(=N)N)NC(=O)[C@H](CCCNC(=N)N)NC(=O)[C@H](Cc1ccccc1)NC(=O)[C@H](CCCCN)NC(=O)CCOCCOCCOCCOCCOCCOCCOCCNC(=O)OCc1ccccc1)C(=O)NC(C)(C)C(=O)N[C@@H](Cc1ccc(Br)cc1)C(=O)O ({Cbz-PEG7}-KFRRQRPR[NMeL]SHKGP[Nle][Aib][Phe(4-Br)]-OH)	119 mmHg	0.17	18.2 h	2600 mmHg/s	-1.54	2.9 h	1.91 nM	0.15	43 mmHg	6.17 nM
CCCC[C@H](NC(=O)[C@@H]1CCCN1C(=O)CNC(=O)[C@H](CCCCN)NC(=O)[C@H](Cc1c[nH]cn1)NC(=O)[C@H](CO)NC(=O)[C@H](CC(C)C)N(C)C(=O)[C@H](CCCNC(=N)N)NC(=O)[C@@H]1CCCN1C(=O)[C@H](CCCNC(=N)N)NC(=O)[C@H](CCC(N)=O)NC(=O)[C@H](CCCNC(=N)N)NC(=O)[C@H](CCCNC(=N)N)NC(=O)[C@H](Cc1ccccc1)NC(=O)[C@H](CCCCN)NC(=O)CCOCCOCCOCCNC(=O)OCC1c2ccccc2-c2ccccc21)C(=O)NC(C)(C)C(=O)N[C@@H](Cc1ccc(Br)cc1)C(=O)O ({Fmoc-PEG3}-KFRRQRPR[NMeL]SHKGP[Nle][Aib][Phe(4-Br)]-OH)			2 h				2.51 nM		32 mmHg	17 nM
CCCC[C@H](NC(=O)[C@@H]1CCCN1C(=O)CNC(=O)[C@H](CCCCN)NC(=O)[C@H](Cc1c[nH]cn1)NC(=O)[C@H](CO)NC(=O)[C@H](CC(C)C)N(C)C(=O)[C@H](CCCNC(=N)N)NC(=O)[C@@H]1CCCN1C(=O)[C@H](CCCNC(=N)N)NC(=O)[C@H](CCC(N)=O)NC(=O)[C@H](CCCNC(=N)N)NC(=O)[C@H](CCCNC(=N)N)NC(=O)[C@H](Cc1ccccc1)NC(=O)[C@H](CCCCN)NC(=O)CCOCCOCCOCCOCCOCCOCCOCCOCCOCCOCCNC(=O)OCC1c2ccccc2-c2ccccc21)C(=O)NC(C)(C)C(=O)N[C@@H](Cc1ccc(Br)cc1)C(=O)O ({Fmoc-PEG10}-KFRRQRPR[NMeL]SHKGP[Nle][Aib][Phe(4-Br)]-OH)			17.2 h				2.4 nM		28 mmHg	4.9 nM
